In ChEMBL document CHEMBL5154870, “Discovery of novel glutaminase 1 allosteric inhibitor with 4-piperidinamine linker and aromatic heterocycles” (Eur J Med Chem, 2022):
Calls of active or inactive are those of the source. The rule behind the calls is not given here.

Legend:
[1] = Bioavailability in Sprague-Dawley rat at 10 mg/kg, ip measured for 72 hrs by LC-MS/MS analysis; assay type: ADME, organism-based; settings: in vivo
[2] = test system: HCT-116; assay: Antiproliferative activity against human HCT-116 cells overexpressing GLS1 assessed as inhibition of cell proliferation measured after 72 hrs by MTT assay; assay type: functional, cell-based; settings: HCT-116, 72 h
[3] = target: T1, Glutaminase kidney isoform, mitochondrial (Homo sapiens) (UniProt O94925); settings: HCT-116, filed as negative allosteric modulator, dose 100-300 nM, time 12.0 hrs
T1 sequence (whole entry): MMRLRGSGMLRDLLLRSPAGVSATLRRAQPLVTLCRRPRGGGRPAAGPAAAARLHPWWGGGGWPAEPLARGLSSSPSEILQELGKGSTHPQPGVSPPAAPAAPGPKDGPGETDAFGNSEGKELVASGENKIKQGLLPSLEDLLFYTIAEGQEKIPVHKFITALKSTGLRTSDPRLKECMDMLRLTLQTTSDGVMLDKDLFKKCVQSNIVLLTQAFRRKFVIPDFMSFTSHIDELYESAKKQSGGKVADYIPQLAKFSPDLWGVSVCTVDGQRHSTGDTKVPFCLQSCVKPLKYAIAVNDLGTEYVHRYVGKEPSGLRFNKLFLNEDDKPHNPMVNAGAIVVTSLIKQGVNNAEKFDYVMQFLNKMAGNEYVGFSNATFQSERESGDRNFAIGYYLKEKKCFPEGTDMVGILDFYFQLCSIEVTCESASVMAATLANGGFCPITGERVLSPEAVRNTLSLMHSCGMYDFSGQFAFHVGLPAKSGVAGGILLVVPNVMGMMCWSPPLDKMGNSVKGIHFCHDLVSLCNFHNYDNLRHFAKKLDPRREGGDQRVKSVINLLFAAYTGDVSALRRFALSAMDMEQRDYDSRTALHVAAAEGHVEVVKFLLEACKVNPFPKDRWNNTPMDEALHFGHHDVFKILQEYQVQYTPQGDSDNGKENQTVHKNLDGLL

[4] = Toxicity in nude mouse xenografted with human HCT-116 cells assessed as heart damage by measuring edema and atrophy at 50 to 100 mg/kg, ip measured after 21 days by H and E staining based analysis; assay type: organism-based; settings: in vivo, 504 h, dose 50-100 mg/kg, time 21 day
[5] = target: T1, Glutaminase kidney isoform, mitochondrial (Homo sapiens); settings: HCT-116, filed as negative allosteric modulator, dose 100-300 nM, time 12.0 hrs; remark: listed apart in the source
[6] = AUC (0 to infinity) in Sprague-Dawley rat at 5 mg/kg, iv measured for 72 hrs by LC-MS/MS analysis; assay type: ADME, organism-based; design: time 72 hrs, dose 5 mg/kg, route iv; settings: in vivo
[7] = Metabolic stability in human liver microsomes assessed as half life at 10 uM by LC-MS/MS analysis; assay type: ADME, Microsome; settings: liver microsomes
[8] = target: T2, Glutaminase kidney isoform, mitochondrial (Homo sapiens, UniProt O94925); assay: Binding affinity to human GLS1 assessed as dissociation constant by surface plasmon resonance analysis
T2 sequence (O94925 whole entry): T1 sequence (whole entry)

[9] = target: T1, Glutaminase kidney isoform, mitochondrial (Homo sapiens); settings: HCT-116, filed as negative allosteric modulator, dose 100-300 nM, time 12.0 hrs; remark: listed apart in the source
[10] = target: T1, Glutaminase kidney isoform, mitochondrial (Homo sapiens); settings: HCT-116, filed as negative allosteric modulator, dose 100-300 nM, time 12.0 hrs; remark: listed apart in the source
[11] = AUC (0 to infinity) in Sprague-Dawley rat at 10 mg/kg, ip measured for 72 hrs by LC-MS/MS analysis; assay type: ADME, organism-based; design: dose 10 mg/kg, time 72 hrs, route ip; settings: in vivo
[12] = target: T1, Glutaminase kidney isoform, mitochondrial (Homo sapiens); settings: HCT-116, filed as negative allosteric modulator, dose 100-300 nM, time 12.0 hrs; remark: listed apart in the source
[13] = Half life in Sprague-Dawley rat at 5 mg/kg, iv measured for 72 hrs by LC-MS/MS analysis; assay type: ADME, organism-based; settings: in vivo
[14] = Toxicity in nude mouse xenografted with human HCT-116 cells assessed as liver damage by measuring edema and atrophy at 50 to 100 mg/kg, ip measured after 21 days by H and E staining based analysis; assay type: organism-based; settings: in vivo, 504 h, dose 50-100 mg/kg, time 21 day
[15] = Metabolic stability in human plasma assessed as parent compound remaining at 1 uM measured after 2 hrs by LC-MS/MS analysis; assay type: ADME, cell-free; settings: read-out: Stability
[16] = Metabolic stability in human liver microsomes assessed as intrinsic clearance at 10 uM by LC-MS/MS analysis; assay type: ADME, Microsome; settings: read-out: CLH
[17] = Apparent volume of distribution in Sprague-Dawley rat at 10 mg/kg, ip measured for 72 hrs by LC-MS/MS analysis; assay type: ADME, organism-based; settings: in vivo
[18] = Toxicity in nude mouse xenografted with human HCT-116 cells assessed as spleen damage by measuring edema and atrophy at 50 to 100 mg/kg, ip measured after 21 days by H and E staining based analysis; assay type: organism-based; settings: in vivo, 504 h, dose 50-100 mg/kg, time 21 day
[19] = test system: CT26; assay: Antiproliferative activity against mouse CT26 cells overexpressing GLS1 assessed as inhibition of cell proliferation measured after 72 hrs by MTT assay; assay type: functional, cell-based; settings: CT26, 72 h
[20] = AUC (0 to t) in Sprague-Dawley rat at 5 mg/kg, iv measured for 72 hrs by LC-MS/MS analysis; assay type: ADME, organism-based; design: dose 5 mg/kg, time 72 hrs, route iv; settings: in vivo
[21] = target: T1, Glutaminase kidney isoform, mitochondrial (Homo sapiens); settings: HCT-116, filed as negative allosteric modulator, dose 100-300 nM, time 12.0 hrs; remark: listed apart in the source
[22] = test system: HCT-116; assay: Induction of apoptosis in human HCT-116 cells assessed as late apoptotic cells at 30 nM measured after 24 hrs by Annexin V-FITC/PI staining based flow cytometry method (reference value: 3.55 %); assay type: functional
[23] = MRT (0 to infinity) in Sprague-Dawley rat at 5 mg/kg, iv measured for 72 hrs by LC-MS/MS analysis; assay type: ADME, organism-based; settings: in vivo
[24] = Toxicity in nude mouse xenografted with human HCT-116 cells assessed as kidney damage by measuring edema and atrophy at 50 to 100 mg/kg, ip measured after 21 days by H and E staining based analysis; assay type: organism-based; settings: in vivo, 504 h, dose 50-100 mg/kg, time 21 day
[25] = test system: HCT-116; assay: Induction of apoptosis in human HCT-116 cells assessed as late apoptotic cells at 50 nM measured after 24 hrs by Annexin V-FITC/PI staining based flow cytometry method (reference value: 3.55 %); assay type: functional
[26] = Apparent clearance in Sprague-Dawley rat at 10 mg/kg, ip measured for 72 hrs by LC-MS/MS analysis; assay type: ADME, organism-based; settings: in vivo
[27] = target: T2, Glutaminase kidney isoform, mitochondrial; assay: Allosteric inhibition of human GLS1 using glutamine as substrate incubated for 60 mins by NADH/NADPH-based absorbance analysis
[28] = test system: HCT-116; assay: Induction of apoptosis in human HCT-116 cells assessed as necrotic cells at 200 nM measured after 24 hrs by Annexin V-FITC/PI staining based flow cytometry method (reference value: 0.48 %); assay type: functional
[29] = test system: HCT-116; assay: Induction of apoptosis in human HCT-116 cells assessed as necrotic cells at 30 nM measured after 24 hrs by Annexin V-FITC/PI staining based flow cytometry method (reference value: 0.48 %); assay type: functional
[30] = test system: HCT-116; assay: Induction of apoptosis in human HCT-116 cells assessed as early apoptotic cells at 30 nM measured after 24 hrs by Annexin V-FITC/PI staining based flow cytometry method (reference value: 4.65 %); assay type: functional
[31] = MRT (0 to infinity) in Sprague-Dawley rat at 10 mg/kg, ip measured for 72 hrs by LC-MS/MS analysis; assay type: ADME, organism-based; settings: in vivo

With `O=C(Cc1ccccc1)Nc1nnc(NC2CCN(c3nnc(NC(=O)c4nccn4Cc4ccc(C(F)(F)F)cc4)s3)CC2)s1` the bioavailability [1] was 20.9%, the IC50 [2] was 51 nM and the inhibition [3] was “Active”. The Activity [4] was “Non-Toxic”, the inhibition [5] was “Active” and the AUC(0-inf) [6] was 7310 ng·h/mL. The half-life at 10 µM [7] was 3.24 h, the Kd [8] was 52 nM and the inhibition [9] was “Active”. The inhibition [10] was “Active”, the AUC(0-inf) [11] was 3490 ng·h/mL and the inhibition [12] was “Active”. For the same compound, the half-life [13] was 7.44 h, the Activity [14] was “Non-Toxic” and the remaining at 2 h, 1 µM [15] was 96%. The microsomal CLint at 10 µM [16] was 8.95 µL/min/mg, the Vd/F [17] was 36.1 L/kg and the Activity [18] was “Non-Toxic”. The IC50 [19] was 320 nM, the AUC(0-t) at 72 h [20] was 6930 ng·h/mL and the inhibition [21] was “Active”. The Activity [22] was 4.99%, the MRT inf [23] was 4.97 h and the Activity [24] was “Non-Toxic”. The Activity [25] was 5.4%, the CL/F [26] was 48.8 mL/min/kg and the IC50 [27] was 11.9 nM. For the same compound, the Activity [28] was 0.02%, the Activity [29] was 0.048% and the Activity [30] was 13.6%. It also gave an MRT inf [31] of 13 h.
